# Reference: patent US20260262643A1, “HERBICIDAL BENZOXAZINES” (FMC CORPORATION, priority 2022, published 2026)
# What was measured:
# ducksalad = assay: Test D flooded paddy test; type: in vivo, Heteranthera limosa; conditions: 250 g ai/ha, applied to paddy water, visual rating after 13 to 14 days, scale 0 to 100 (0 no effect, 100 complete control)
# Summary of the method: (§1)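 Rating scale 0–100 (0 no effect, 100 complete control), visual, versus controls. Readout at 13–14 days after in-water application to 2-leaf plants in pots flooded 3 cm deep.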
# corn [1] = assay: Test C preemergence; type: in vivo, Zea mays; conditions: preemergence, 0 to 100 scale (0 no effect, 100 complete control)
# Summary of the method: (§2)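 Test material, in non-phytotoxic solvent with surfactant, was sprayed on the soil directly after seeding (preemergence) or on young plants of 2–10 cm with one to two leaves (postemergence). Greenhouse, 10 days; 0–100 visual control scale.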
# corn [2] = assay: Test C postemergence; type: in vivo, Zea mays; conditions: 10 days
# Summary of the method: as §2
# blackgrass [3] = assay: Test C postemergence; type: in vivo, Alopecurus myosuroides; conditions: 10 days
# Summary of the method: as §2
# soybean [4] = assay: Test C postemergence; type: in vivo, Glycine max; conditions: postemergence, 10 days
# Summary of the method: as §2
# rice = assay: Test D flooded paddy test; type: in vivo, Oryza sativa; conditions: 250 g ai/ha, applied to paddy water, visual rating after 13 to 14 days, scale 0 to 100 (0 no effect, 100 complete control)
# Summary of the method: as §1
# kochia [5] = assay: Test C preemergence; type: in vivo, Bassia scoparia; conditions: preemergence, 0 to 100 scale (0 no effect, 100 complete control)
# Summary of the method: as §2
# ragweed [6] = assay: Test C preemergence; type: in vivo, Ambrosia artemisiifolia; conditions: preemergence, 0 to 100 scale (0 no effect, 100 complete control)
# Summary of the method: as §2
# wheat [7] = assay: Test C postemergence; type: in vivo, Triticum aestivum; conditions: postemergence, 10 days
# Summary of the method: as §2
# ragweed [8] = assay: Test C postemergence; type: in vivo, Ambrosia artemisiifolia; conditions: postemergence, 10 days
# Summary of the method: as §2
# galium = assay: Test C postemergence; type: in vivo, Galium aparine; conditions: 10 days
# Summary of the method: as §2
# sedge, umbrella = assay: Test D flooded paddy test; type: in vivo, Cyperus difformis; conditions: 250 g ai/ha, applied to paddy water, visual rating after 13 to 14 days, scale 0 to 100 (0 no effect, 100 complete control)
# Summary of the method: as §1
# oat, wild [9] = assay: Test C preemergence; type: in vivo, Avena fatua; conditions: preemergence, 0 to 100 scale (0 no effect, 100 complete control)
# Summary of the method: as §2
# foxtail, giant [10] = assay: Test C postemergence; type: in vivo, Setaria faberi; conditions: 10 days
# Summary of the method: as §2
# horseweed = assay: Test C postemergence; type: in vivo, Erigeron canadensis; conditions: 10 days
# Summary of the method: as §2
# blackgrass [11] = assay: Test C preemergence; type: in vivo, Alopecurus myosuroides; conditions: 0 to 100 scale (0 no effect, 100 complete control); for Blackgrass plant response rating: preemergence
# Summary of the method: as §2
# goosegrass [12] = assay: Test C preemergence; type: in vivo, Eleusine indica; conditions: preemergence, 0 to 100 scale (0 no effect, 100 complete control)
# From the text: (§3) Seeds of plant species selected from barnyardgrass (Echinochloa crusgalli), blackgrass (Alopecurus myosuroides), corn (Zea mays), foxtail, giant (giant foxtail, Setaria faberi), green foxtail (Setaria viridis), goosegrass (Eleusine indica), kochia (Bassia scoparia), oat, wild (wild oat, Avena fatua), pigweed, palmer (palmer amaranth, palmer pigweed, Amaranthus palmeri), Pigweed, Redroot (redroot pigweed, Amaranthus retroflexus), ragweed (common ragweed, Ambrosia artemisiifolia), ryegrass, Italian ([…] ryegrass, Lolium multiflorum), soybean (Glycine max), and wheat (Triticum aestivum) were planted into a blend of loam soil and sand and treated preemergence with a directed soil spray using test chemicals formulated in a non-phytotoxic solvent mixture which included a surfactant. At the same time, plants selected from these crops and weed species and also galium (catchweed bedstraw, Galium aparine) and horseweed (Erigeron canadensis) were planted in pots containing the same blend of loam soil and sand and treated with postemergence applications of test chemicals formulated in the same manner. Plants ranged in height from 2 to 10 cm and were in the one- to two-leaf stage for the postemergence treatment. Treated plants and untreated controls were maintained in a greenhouse for 10 days, after which time all treated plants were compared to untreated controls and visually evaluated for injury. Plant response ratings, summarized in Table C, are based on a 0 to 100 scale where 0 is no effect and 100 is complete control. A dash (-) response means no test result.
# oat, wild [13] = assay: Test C postemergence; type: in vivo, Avena fatua; conditions: postemergence, 10 days
# Summary of the method: as §2
# goosegrass [14] = assay: Test C postemergence; type: in vivo, Eleusine indica; conditions: 10 days
# From the text: as §3
# wheat [15] = assay: Test C preemergence; type: in vivo, Triticum aestivum; conditions: preemergence, 0 to 100 scale (0 no effect, 100 complete control)
# Summary of the method: as §2
# pigweed, palmer [16] = assay: Test C postemergence; type: in vivo, Amaranthus palmeri; conditions: postemergence, 10 days
# Summary of the method: as §2
# soybean [17] = assay: Test C preemergence; type: in vivo, Glycine max; conditions: preemergence, 0 to 100 scale (0 no effect, 100 complete control)
# Summary of the method: as §2
# kochia [18] = assay: Test C postemergence; type: in vivo, Bassia scoparia; conditions: postemergence, 10 days
# Summary of the method: as §2
# pigweed, palmer [19] = assay: Test C preemergence; type: in vivo, Amaranthus palmeri; conditions: preemergence, 0 to 100 scale (0 no effect, 100 complete control)
# Summary of the method: as §2
# ryegrass, Italian [20] = assay: Test C preemergence; type: in vivo, Lolium multiflorum; conditions: preemergence, 0 to 100 scale (0 no effect, 100 complete control)
# Summary of the method: as §2
# ryegrass, Italian [21] = assay: Test C postemergence; type: in vivo, Lolium multiflorum; conditions: postemergence, 10 days
# Summary of the method: as §2
# barnyardgrass = assay: Test D flooded paddy test; type: in vivo, Echinochloa crus-galli; conditions: 250 g ai/ha, applied to paddy water, visual rating after 13 to 14 days, scale 0 to 100 (0 no effect, 100 complete control)
# Summary of the method: as §1
# foxtail, giant [22] = assay: Test C preemergence; type: in vivo, Setaria faberi; conditions: preemergence, 0 to 100 scale (0 no effect, 100 complete control)
# Summary of the method: as §2
# [23] = 125 g ai/ha, postemergence, 0 to 100 scale, 0 no effect, 100 complete control
# [24] = Postemergence, 500 g ai/ha, visual 0 to 100 scale (0 no effect, 100 complete control)
# [25] = 125 g ai/ha, 0 to 100 scale, 0 no effect, 100 complete control
# [26] = 500 g ai/ha, postemergence, 0 to 100 scale (0 no effect, 100 complete control)
# [27] = 500 g ai/ha, 0 to 100 scale (0 no effect, 100 complete control)
structure (smiles),measurement,setting,value
Cc1cccc2c1O[C@@H](C)CN2C(=O)c1cccc(-n2nccn2)c1 [Compound 282],"Plant response rating, Ducksalad (Flood)",ducksalad,0
same,Corn plant response rating,corn [1]; 500 g ai/ha,0
same,Corn plant response rating,"corn [1]; Test C, 125 g ai/ha",0
same,"Plant response rating, Corn",corn [2]; [23],0
same,"Plant response rating, Corn",corn [2]; [24],0
same,"Plant response rating, Blackgrass",blackgrass [3]; [23],0
same,"Plant response rating, Blackgrass",blackgrass [3]; [24],0
same,"Plant response rating, Soybean",soybean [4]; [25],0
same,"Plant response rating, Rice (Flood)",rice,0
same,Kochia plant response rating,kochia [5]; 500 g ai/ha,0
same,Kochia plant response rating,"kochia [5]; Test C, 125 g ai/ha",0
same,Ragweed plant response rating,ragweed [6]; 500 g ai/ha,0
same,Ragweed plant response rating,"ragweed [6]; Test C, 125 g ai/ha",0
same,"Plant response rating, Wheat",wheat [7]; [25],0
same,"Plant response rating, Ragweed",ragweed [8]; [25],0
same,"Plant response rating, Galium",galium; [23],0
same,"Plant response rating, Galium",galium; [24],0
same,"Plant response rating, Sedge, Umbrella (Flood)","sedge, umbrella",0
same,"Oat, Wild plant response rating","oat, wild [9]; 500 g ai/ha",0
same,"Oat, Wild plant response rating","oat, wild [9]; Test C, 125 g ai/ha",0
same,"Plant response rating, Foxtail, Giant","foxtail, giant [10]; [23]",0
same,"Plant response rating, Foxtail, Giant","foxtail, giant [10]; [24]",0
same,"Plant response rating, Horseweed",horseweed; [23],0
same,"Plant response rating, Horseweed",horseweed; [24],0
same,"Plant response rating, Blackgrass","blackgrass [11]; Preemergence, 500 g ai/ha, visual rating after 10 days",0
same,Blackgrass plant response rating,"blackgrass [11]; Test C, 125 g ai/ha",0
same,Goosegrass plant response rating,goosegrass [12]; 500 g ai/ha,0
same,Goosegrass plant response rating,"goosegrass [12]; Test C, 125 g ai/ha",0
same,"Plant response rating, Oat, Wild","oat, wild [13]; [25]",0
same,"Plant response rating, Goosegrass",goosegrass [14]; [23],0
same,"Plant response rating, Goosegrass",goosegrass [14]; [24],0
same,Wheat plant response rating,wheat [15]; 500 g ai/ha,0
same,Wheat plant response rating,"wheat [15]; Test C, 125 g ai/ha",0
same,"Plant response rating, Pigweed, Palmer","pigweed, palmer [16]; [25]",0
same,Soybean plant response rating,soybean [17]; 500 g ai/ha,0
same,Soybean plant response rating,"soybean [17]; Test C, 125 g ai/ha",0
same,"Plant response rating, Kochia",kochia [18]; [25],0
same,"Pigweed, Palmer plant response rating","pigweed, palmer [19]; 500 g ai/ha",0
same,"Pigweed, Palmer plant response rating","pigweed, palmer [19]; Test C, 125 g ai/ha",0
same,"Ryegrass, Italian plant response rating","ryegrass, Italian [20]; 500 g ai/ha",0
same,"Ryegrass, Italian plant response rating","ryegrass, Italian [20]; Test C, 125 g ai/ha",0
same,"Plant response rating, Ryegrass, Italian","ryegrass, Italian [21]; [25]",0
same,"Plant response rating, Barnyardgrass (Flood)",barnyardgrass,0
same,"Foxtail, Giant plant response rating","foxtail, giant [22]; 500 g ai/ha",0
same,"Foxtail, Giant plant response rating","foxtail, giant [22]; Test C, 125 g ai/ha",0
Cc1cccc2c1O[C@@H](C)CN2C(=O)c1cccc(-n2cnc(C#C[Si](C)(C)C)n2)c1 [Compound 284],"Plant response rating, Ducksalad (Flood)",ducksalad,65
same,Corn plant response rating,corn [1]; 500 g ai/ha,0
same,Corn plant response rating,"corn [1]; Test C, 125 g ai/ha",0
same,"Plant response rating, Corn",corn [2]; [23],0
same,"Plant response rating, Corn",corn [2]; [26],10
same,"Plant response rating, Blackgrass",blackgrass [3]; [23],0
same,"Plant response rating, Blackgrass",blackgrass [3]; [26],40
same,"Plant response rating, Soybean",soybean [4]; [25],20
same,"Plant response rating, Soybean",soybean [4]; [27],30
same,"Plant response rating, Rice (Flood)",rice,0
same,Kochia plant response rating,kochia [5]; 500 g ai/ha,10
same,Kochia plant response rating,"kochia [5]; Test C, 125 g ai/ha",0
same,Ragweed plant response rating,ragweed [6]; 500 g ai/ha,0
same,Ragweed plant response rating,"ragweed [6]; Test C, 125 g ai/ha",0
same,"Plant response rating, Wheat",wheat [7]; [25],10
same,"Plant response rating, Wheat",wheat [7]; [27],10
same,"Plant response rating, Ragweed",ragweed [8]; [25],0
same,"Plant response rating, Ragweed",ragweed [8]; [27],0
same,"Plant response rating, Galium",galium; [23],70
same,"Plant response rating, Galium",galium; [26],90
same,"Plant response rating, Sedge, Umbrella (Flood)","sedge, umbrella",0
same,"Oat, Wild plant response rating","oat, wild [9]; 500 g ai/ha",70
same,"Oat, Wild plant response rating","oat, wild [9]; Test C, 125 g ai/ha",20
same,"Plant response rating, Foxtail, Giant","foxtail, giant [10]; [23]",10
same,"Plant response rating, Foxtail, Giant","foxtail, giant [10]; [26]",20
same,"Plant response rating, Horseweed",horseweed; [23],0
same,"Plant response rating, Horseweed",horseweed; [26],50
same,Blackgrass plant response rating,blackgrass [11]; 500 g ai/ha,60
same,Blackgrass plant response rating,"blackgrass [11]; Test C, 125 g ai/ha",0
same,Goosegrass plant response rating,goosegrass [12]; 500 g ai/ha,90
same,Goosegrass plant response rating,"goosegrass [12]; Test C, 125 g ai/ha",10
same,"Plant response rating, Oat, Wild","oat, wild [13]; [25]",10
same,"Plant response rating, Oat, Wild","oat, wild [13]; [27]",10
same,"Plant response rating, Goosegrass",goosegrass [14]; [23],10
same,"Plant response rating, Goosegrass",goosegrass [14]; [26],30
same,Wheat plant response rating,wheat [15]; 500 g ai/ha,10
same,Wheat plant response rating,"wheat [15]; Test C, 125 g ai/ha",0
same,"Plant response rating, Pigweed, Palmer","pigweed, palmer [16]; [25]",40
same,"Plant response rating, Pigweed, Palmer","pigweed, palmer [16]; [27]",60
same,Soybean plant response rating,soybean [17]; 500 g ai/ha,0
same,Soybean plant response rating,"soybean [17]; Test C, 125 g ai/ha",0
same,"Plant response rating, Kochia",kochia [18]; [25],10
same,"Plant response rating, Kochia",kochia [18]; [27],50
same,"Pigweed, Palmer plant response rating","pigweed, palmer [19]; 500 g ai/ha",0
same,"Pigweed, Palmer plant response rating","pigweed, palmer [19]; Test C, 125 g ai/ha",0
same,"Ryegrass, Italian plant response rating","ryegrass, Italian [20]; 500 g ai/ha",90
same,"Ryegrass, Italian plant response rating","ryegrass, Italian [20]; Test C, 125 g ai/ha",50
same,"Plant response rating, Ryegrass, Italian","ryegrass, Italian [21]; [25]",0
same,"Plant response rating, Ryegrass, Italian","ryegrass, Italian [21]; [27]",0
same,"Plant response rating, Barnyardgrass (Flood)",barnyardgrass,0
same,"Foxtail, Giant plant response rating","foxtail, giant [22]; 500 g ai/ha",90
same,"Foxtail, Giant plant response rating","foxtail, giant [22]; Test C, 125 g ai/ha",0
